From the supplement of paper PMC10307832

Key:
Assay in all cases: relative viability (nuclei count vs DMSO), 5 days (fraction); higher = more cells survive
[1] = compound: CC[C@H](Nc1ncnc2[nH]cnc12)c1nc2cccc(F)c2c(=O)n1-c1ccccc1 [Idelalisib] + Nc1nc2[nH]cc(CCc3ccc(C(=O)N[C@@H](CCC(=O)O)C(=O)O)cc3)c2c(=O)[nH]1 [Pemetrexed] (partner 0.2 µM)
Method in brief: (§1)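 Five library-drug doses in √10 steps were combined with a fixed anchor-drug dose, or a single drug was given alone, by pin tool to lung cancer cell lines in 1536-well plates the day after seeding. Nuclei were stained and counted after 5 days. Relative viability is the nuclei count in treated wells over that in vehicle wells, taken as the median of duplicate plates.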

[2] = compound: Nc1nc2[nH]cc(CCc3ccc(C(=O)N[C@@H](CCC(=O)O)C(=O)O)cc3)c2c(=O)[nH]1 [Pemetrexed] + COc1cccc2cc(-c3nc([C@H]4CC[C@H](C(=O)O)CC4)n4ncnc(N)c34)[nH]c12 [OSI-027] (partner 0.5 µM)
Method in brief: as §1

[3] = compound: CC[C@H](Nc1ncnc2[nH]cnc12)c1nc2cccc(F)c2c(=O)n1-c1ccccc1 [Idelalisib] + CCNC(=O)c1noc(-c2cc(C(C)C)c(O)cc2O)c1-c1ccc(CN2CCOCC2)cc1 [Luminespib] (partner 0.01 µM)
Method in brief: as §1

[4] = compound: CC[C@H](Nc1ncnc2[nH]cnc12)c1nc2cccc(F)c2c(=O)n1-c1ccccc1 [Idelalisib]
Method in brief: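 For viability, nuclei in each treated well were divided by nuclei in vehicle wells and the median across plates was taken. Lung cancer cell lines in 1536-well plates were pinned with five library-drug doses (not always all listed) spaced by √10, cultured 5 days without medium change, and imaged at 4× after Hoechst staining, with plates passing only at control CV below 25% and at least one doubling.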

| Cell Line | relative viability ([1]; first compound 0.04 µM) | relative viability ([1]; first compound 0.1265 µM) | relative viability ([1]; first compound 0.4 µM) | relative viability ([1]; first compound 1.265 µM) | relative viability ([1]; first compound 4 µM) | relative viability ([2]; first compound 0.002 µM) | relative viability ([2]; first compound 0.006325 µM) | relative viability ([2]; first compound 0.02 µM) | relative viability ([2]; first compound 0.06325 µM) | relative viability ([2]; first compound 0.2 µM) | relative viability ([3]; first compound 0.04 µM) | relative viability ([3]; first compound 0.1265 µM) | relative viability ([3]; first compound 0.4 µM) | relative viability ([3]; first compound 1.265 µM) | relative viability ([3]; first compound 4 µM) | relative viability ([4]; 0.04 µM) | relative viability ([4]; 0.1265 µM) | relative viability ([4]; 0.4 µM) | relative viability ([4]; 1.265 µM) | relative viability ([4]; 4 µM) |
| --- | --- | --- | --- | --- | --- | --- | --- | --- | --- | --- | --- | --- | --- | --- | --- | --- | --- | --- | --- | --- |
| NCI-H358 | 0.18 | 0.171 | 0.182 | 0.168 | 0.157 | 0.729 | 0.751 | 0.638 | 0.191 | 0.106 | 0.284 | 0.587 | 0.347 | 0.235 | 0.159 | 1.04 | 0.864 | 0.794 | 0.901 | 0.861 |
| NCI-H441 | 0.247 | 0.233 | – | 0.285 | 0.251 | 0.63 | 0.504 | 0.574 | 0.431 | 0.368 | 0.365 | 0.354 | 0.308 | 0.308 | 0.316 | 1.13 | 0.941 | – | 1.12 | 1.05 |
| NCI-H460 | 0.0676 | 0.0589 | 0.0612 | 0.0657 | 0.0587 | 0.57 | 0.51 | 0.824 | 0.374 | 0.0473 | 0.0345 | 0.032 | 0.0291 | 0.0326 | 0.0297 | 0.996 | 1.01 | 1.01 | 1.02 | 1 |
| NCI-H520 | 0.75 | 0.595 | 0.567 | 0.637 | 0.451 | 0.225 | 0.246 | 0.321 | 0.267 | 0.265 | 0.197 | 0.251 | 0.222 | 0.217 | 0.192 | 0.958 | 0.987 | 0.84 | 0.922 | 0.79 |
| NCI-H522 | 1.3 | 0.99 | 0.995 | 1.21 | 1.05 | 0.794 | 0.65 | 0.796 | 0.706 | 0.676 | 1.13 | – | 1.21 | 1.12 | 1.23 | 1.13 | 0.865 | 0.916 | 0.997 | 0.974 |
| NCI-H596 | 0.52 | 0.441 | 0.49 | 0.536 | 0.487 | 0.705 | 0.691 | 0.642 | 0.632 | 0.414 | 1.13 | 0.925 | 0.827 | 0.905 | 0.847 | 1.05 | 1.01 | 0.976 | 1.04 | 0.809 |
| NCI-H647 | 0.166 | 0.144 | 0.14 | 0.154 | 0.159 | 0.467 | 0.492 | 0.806 | 0.744 | 0.318 | 0.171 | 0.141 | – | 0.241 | 0.121 | 1.01 | 1.08 | 0.719 | 0.847 | 0.702 |
| NCI-H650 | 0.983 | 0.995 | 0.923 | 0.77 | 0.92 | 0.536 | 0.562 | 0.551 | 0.507 | 0.532 | 0.894 | 0.703 | 0.648 | 0.869 | 0.765 | 0.938 | 1.01 | 0.885 | 1.05 | 0.889 |
